Experimental data taken from the supplement of paper PMC10949913.

How the values were obtained:
Experiment in all cases: area under concentration-response curve (viability) (AUC (a.u.)); higher = less active
Settings in all cases: 48 h
[1] = system: CU-ACC2
How it was run: (§1)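 Concentration-response curves were fitted to obtain AC50 and area under the curve, keeping inhibitory or non-responding curve classes only. Data came from CellTiter-Glo luminescence, normalised per plate to vehicle and empty-well controls, in three adrenocortical carcinoma cell lines. These were treated in 1,536-well plates with library compounds at 11 concentrations and read after 48 h.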

[2] = system: CU-ACC1
How it was run: as §1

[3] = system: NCI-H295R
How it was run: as §1

SMILES | area under concentration-response curve [1] | area under concentration-response curve [2] | area under concentration-response curve [3]
CO[C@@H]1[C@@H](OC(N)=O)[C@@H](O)[C@H](OC2=CC=C3\C(=C(NC(=O)C4=CC=C([O-])C(=C4)CC=C(C)C)/C(=O)OC3=C2C)O)OC1(C)C | 531 | 535 | 539
CC1(C)CC(O)CC(C)(C)N1[O] | 626 | 517 | 511
Cn1cnc2c(F)c(Nc3ccc(Br)cc3Cl)c(C(=O)NOCCO)cc21 | 493 | 463 | 500
O=C(NCC(=O)N1CC[C@H](NC2CCC(O)(c3ccc(-c4ncccn4)cn3)CC2)C1)c1cccc(C(F)(F)F)c1 (stereo partly drawn) | 606 | 554 | 560
COc1ccccc1N1CCN(CC(O)COc2cccc3ccccc23)CC1 (stereo not drawn) | 515 | 458 | 501
CC1=CC=CC=C1N2\C(=N/C3=C(C(=CC=C3)C)C2=O)C[N]4C=NC5=C4N=CN=C5N | 643 | 555 | 583
C[C@H]1CC2[C@@H]3CCC/4=C/C(=O)/C=C\[C@]4(C)[C@@]3(F)[C@@H](O)C[C@]2(C)[C@@]1(O)C(=O)CO (stereo partly drawn) | 572 | 477 | 551
COc1cc(C[C@@H](CO)[C@H](CO)Cc2ccc(O)c(OC)c2)ccc1O | 575 | 534 | 517
CCN1\C=C(\C(O)=O)C(=O)C2=C1C=C(N3CCNCC3)C(=C2)F | 397 | 356 | 393
COc1ccc(-n2cnc3cc(C(=O)N4CCCCC4)ccc32)cc1 | 534 | 502 | 479
OC(=O)\C1=C\N(C2=CC=C(F)C=C2)C3=C(C=C(F)C(=C3)N4CCNCC4)C1=O | 549 | 485 | 497
CN(CCO)C1CCN(c2ccc(Nc3ncc4c5ccnc(F)c5n(C5CCCC5)c4n3)nc2)CC1 | 658 | 467 | 579
CCCc1cc(C(N)=S)ccn1 | 649 | 587 | 581
Cc1ccc(C(=O)Nc2ccc([S+](=O)([O-])O)c3cc([S+](=O)([O-])O)cc([S+](=O)([O-])O)c23)cc1NC(=O)c1cccc(NC(=O)Nc2cccc(C(=O)Nc3cc(C(=O)Nc4ccc([S+](=O)([O-])O)c5cc([S+](=O)([O-])O)cc([S+](=O)([O-])O)c45)ccc3C)c2)c1 | 488 | 420 | 488
CCCCCN(C)CCC(O)(P(=O)([O-])O)P(=O)(O)O | 590 | 612 | 611
N#C/C(=C\c1ccc(O)c(O)c1)C(=O)NCc1ccccc1 | 605 | 427 | 572
CN1CC[C@@H](NC(=O)Nc2ccc(C#N)cc2)C[C@@H]1c1nc2ccccc2[nH]1 | 595 | 485 | 555
N[C@@H](CCC(=O)O)C(=O)N[C@@H](Cc1c[nH]c2ccccc12)C(=O)O | 584 | 493 | 519
Clc1cccc(-c2ccc(-c3nnc(CCCc4ccc5cccnc5n4)o3)cc2)c1 | 627 | 547 | 594
C=CCN(/C=C1\C(=O)O[C@@H](COC)[C@]2(C)C1=C(O)C(=O)C1=C2[C@@H](OC(C)=O)C[C@]2(C)C(=O)CC[C@H]12)CC=C | 385 | 340 | 401
CCCCCN(CCC12CC3CC(CC(C3)C1)C2)C(=O)NCCCc1ccncc1 | 519 | 472 | 453
CC(C)N(CCCNC(=O)Nc1ccc(C(C)(C)C)cc1)C[C@H]1O[C@@H](n2ccc3c(N)ncnc32)[C@H](O)[C@@H]1O | 656 | 537 | 578
CC(C)(C)C(=O)CN1C(=O)[C@H](NC(=O)Nc2cccc(C(=O)O)c2)CN(C2CCCCC2)c2ccccc21 | 612 | 518 | 559

SMILES | area under concentration-response curve [1] | area under concentration-response curve [2] | area under concentration-response curve [3]
COc1cc(C(=O)N[S+](=O)([O-])c2ccccc2C)ccc1Cc1cn(C)c2ccc(NC(=O)OC3CCCC3)cc12 | 595 | 513 | 488
CCCCCCCCCCCC(CC1OC(=O)C1CCCCCC)OC(=O)C(CC(C)C)NC=O (stereo not drawn) | 517 | 474 | 336
Cc1cc(O)cc2c1[C@]1(C)CC[C@H]3C(C)(C)CCC[C@]3(C)[C@H]1C2 | 190 | 53.6 | 89.9
C[C@@H]\1/N=C(/N)NC(=N1)\N(C)C | 596 | 407 | 549
CCc1cccc2c3c([nH]c12)[C@@](CC)(CC(=O)O)OCC3 | 605 | 518 | 525
CC(=O)SCC(Cc1ccccc1)C(=O)NCC(=O)OCc1ccccc1 (stereo not drawn) | 582 | 556 | 573
Cc1ccccc1N1C(=O)c2cc([S+](N)(=O)[O-])c(Cl)cc2NC1C (stereo not drawn) | 599 | 495 | 512
O[C@H](C[C@H]1c2c(F)cccc2-c2cncn21)[C@H]1CC[C@H](O)CC1 | 616 | 553 | 536
CNC(=O)c1c(-c2ccc(F)cc2)oc2cc(N(CCO)[S+](C)(=O)[O-])c(C3CC3)cc12 | 580 | 470 | 496
O=c1oc2c(O)c(O)cc3c(=O)oc4c(O)c(O)cc1c4c23 | 579 | 482 | 517
NNc1nncc2ccccc12 | 568 | 525 | 534
CCN1C(=O)\C(=C/C2=CN=C(NC3=CC=C(C=C3)N4CCN(C)CC4)N=C12)C5=C(Cl)C=C(C=C5)C6=CN=CS6 | 604 | 562 | 568
CCC(=O)NC[C@H](Cc1ccc(OCCc2nc(-c3ccccc3)oc2C)cc1)N/C(C)=C\C(=O)c1ccc(C(F)(F)F)cc1 | 548 | 498 | 487
COC1=CC=C(C=C1O)C/2=C/C(=O)C3=C(O2)C=C(O[C@@H]4O[C@H](CO[C@@H]5O[C@@H](C)[C@H](O)[C@@H](O)[C@H]5O)[C@@H](O)[C@H](O)[C@H]4O)C=C3O | 582 | 502 | 554
CCOC(=O)\C1=C\[C@@H](OC(CC)CC)[C@H](NC(C)=O)[C@@H](N)C1 | 602 | 508 | 547
COc1cc2c(NC3CCN(C)CC3)nc(N3CCCN(C)CC3)nc2cc1OCCCN(C)C | 641 | 544 | 564
Cn1nccc1Nc1nccc(-c2cc3c(s2)C(C)(C)N(CCN2CCOCC2)C3=O)n1 | 589 | 528 | 544
COc1cc(OC)c(C(=O)CCCN2CCCC2)c(OC)c1 | 500 | 440 | 465
O=C(CO)N1CCC(c2n[nH]c(-c3ccc(Cl)cc3)c2-c2ccncn2)CC1 | 454 | 520 | 515
CC(C)(C)c1nc(-c2cccc(N[S+](=O)([O-])c3c(F)cccc3F)c2F)c(-c2ccnc(N)n2)s1 | 608 | 542 | 542
CC(C[N+](C)(C)C)OC(N)=O (stereo not drawn) | 662 | 569 | 591
Nc1nc(Cl)nc2c1ncn2[C@@H]1O[C@H](CO)[C@@H](O)[C@@H]1F | 559 | 468 | 537
CNC(=O)c1ccc(N2C(=S)N(c3ccc(C#N)c(C(F)(F)F)c3)C(=O)C23CCC3)cc1F | 500 | 488 | 534
